Measurements reported in EP4345091A1, “BENZOIC ACID DERIVATIVES, METHODS AND USES THEREOF” (priority 2022, dated 2024).
Converted amounts (≈) assume the structure as drawn. Like-named read-outs stand apart in the source and are kept apart here.

Experiments:
[1] = Stability in human plasma (enzymatic hydrolysis)
Description: The studies of stability in human plasma were performed in human plasma diluted to 80% with phosphate buffer pH 7.4 of total concentration 0.05 M and ionic strength 0.15 M at 37°C. […] Study of enzymatic hydrolysis. […] Initial substrate concentration (ester) - 5×10^-4M with 2% ACN.
Pooled human plasma (960 µL), pH 7.4 phosphate buffered saline (216 µL), 18 µL ACN and 6 µL of a 10-1 M stock solution of the prodrug in ACN were mixed in a 2mL vial. The suspensions were incubated at 37 °C and 50 µL aliquots were removed, mixed with 450 µL of ACN: ZnSO4 1% 1:1 and centrifuged. The supernatant was removed and analysed by HPLC, the remaining substrate and the correspondent acid measured.
Two HPLC systems were used. The buffer and plasma stability studies were performed in an HPLC system with a photodiode detector L-3000 Photo Diode Array Detector, Merck-Hitachi L-6000 pump, Merck-Hitachi D-2500 integrator, and Merck RP-8 column. […] The eluant was a mixture of acetonitrile (60%/70%) and aqueous phosphate buffer with 5% of KH2PO4/H3PO4 0.025M (40%/30%). The flow rate was always 1 mL/1 min and wavelength was set at 230 nm. All quantifications were evaluated using calibration curves from stock solutions.
The initial substrate concentration was 5 x 10^-4 M in all stability assays. All incubations were carried out at pH 7.4 and 37 °C under agitation using the phosphate buffer described above as diluting agent. […] Acetonitrile (2%) was used in all studies to ensure adequate solubilization of the substrates. The benzoates were added from 10 to 1M acetonitrile stock solutions. After incubation, aliquots of 50 µL were taken into vials containing 450 µL of a 1:1 solution of 1% zinc sulfate and acetonitrile, mixed in a vortex and centrifuged for 10 min at 15,000 rpm. The supernatant was then injected into the HPLC and analysed for quantification of benzoic acid and remaining benzoate. All quantifications were performed using calibration curves.

[2] = tested on: human monocytic cell line THP-1 (ATCC56 TIB202); assay: Cytotoxicity assay in THP-1 cells; format: cell-based; conditions: toxicity/activity index: ratio LC50 (THP-1) / MIC (M. tuberculosis H37Rv)
Description: (§1) Cytotoxicity results were obtained through lethal concentration for 50% of the cell population, LC50. Table 6. Results obtained from cytotoxicity assays for the esters, represented by LD50 in µg/mL and comparison with MIC values, in µg/mL with toxicity/activity (T/A) index.
(§2) The T/A index quantitatively is the ratio between the lethal concentration (LC50) given by the minimum inhibitory concentration (MIC).

[3] = Cytotoxicity assay in THP-1 cells; format: cell-based, human; conditions: human, THP-1 cells, lethal concentration for 50% of the cell population, read-out: LC50 (the source's name)
Description: as §1, §2

[4] = tested on: Mycobacterium smegmatis homogenate; assay: Stability in Mycobacterium smegmatis homogenate (enzymatic hydrolysis); conditions: Mycobacterium smegmatis homogenate, 37°C
[5] = as above; conditions: pH 7.4; for half-life at 500 µM: mycobacterium smegmatis homogenate; for half-life: Mycobacterium smegmatis
[6] = tested on: Mycobacterium Bovis BCG infecting human macrophages THP-1; format: cell-based; conditions: compound concentration 2 µg/ml
[7] = tested on: Mycobacterium tuberculosis H37Rv; assay: MIC and MBC by broth microdilution against M. tuberculosis H37Rv; format: cell-based, Mycobacterium tuberculosis H37Rv (ATCC 27294); conditions: Mycobacterium tuberculosis, H37RV
[8] = Chemical stability in phosphate buffer pH 7.4
Description: (§3) Chemical hydrolysis was evaluated in phosphate buffer at physiological pH (7.4) to determine its influence in enzymatic studies.
(§4) 1176 µL pH 7.4 phosphate buffer or pH 5.9 phosphate buffer, 18 µL ACN and 6 µL of a 10-1 M stock solution of the prodrug in ACN were mixed in a 2mL vial. The solution was incubated at 37 °C and 50 µL aliquots were removed, mixed with 450 µL of ACN: H2O 1:1. The solution was analysed by HPLC, the remaining substrate and the correspondent acid were both measured.
(§5) The eluant was a mixture of acetonitrile (60%/70%) and aqueous phosphate buffer with 5% of KH2PO4/H3PO4 0.025M (40%/30%). The flow rate was always 1 mL/1 min and wavelength was set at 230 nm. All quantifications were evaluated using calibration curves from stock solutions.
(§6) The initial substrate concentration was 5 x 10^-4 M in all stability assays. All incubations were carried out at pH 7.4 and 37 °C under agitation using the phosphate buffer described above as diluting agent. […] Acetonitrile (2%) was used in all studies to ensure adequate solubilization of the substrates.

[9] = pH 7.4
Description: as §3, §4, §5, §6

[10] = M. tuberculosis H37Rv, Tables 3, 6 and 7
[11] = M. tuberculosis H37Rv, Table 3, read-out: MBC
[12] = M. tuberculosis H37Rv, Tables 3, 6 and 7, read-out: MIC

| Compound | Degradation (%) 24h [1] [%] | Degradation (%) 48h [1] [%] | Degradation (%) 72h [1] [%] | T/A [2] | Degradation (%) 24h [4] [%] | Degradation (%) 48h [4] [%] | half-life at 500 µM [5] [h] | Degradation (%) 24h [8] [%] | Degradation (%) 48h [8] [%] | Degradation (%) 72h [8] [%] | Degradation (%) 168h [8] [%] | Degradation (%) 332h [8] [%] | MBC [7, 11] [µg/mL] | MIC [7, 12] [µg/mL] | half-life [5] [h] | further results |
| --- | --- | --- | --- | --- | --- | --- | --- | --- | --- | --- | --- | --- | --- | --- | --- | --- |
| CCCCCCOC(=O)c1cc([N+](=O)[O-])cc([N+](=O)[O-])c1 [Compound 3b] | 74 | 93 | 98 | 17 | 19 | 34 | 80.9 ± 5.5 |  |  |  |  |  |  |  |  | CC50 [3]: 528 µg/mL (≈ 1780 µM); CFU x10^4 ([6]; Time 0 days): 9.2 CFUs per mL; CFU x10^4 ([6]; Time 1 day): 14.58 CFUs per mL; CFU x10^4 ([6]; Time 3 days): 11.87 CFUs per mL; CFU x10^4 ([6]; Time 7 days): 9.83 CFUs per mL |
| CCCCOC(=O)c1cc([N+](=O)[O-])cc([N+](=O)[O-])c1 [Compound 3a] | 86 | 98 | 100 | 14 | 93 | 99 | 6.32 ± 0.44 | 10 | 14 | 18 | 40 | 65 |  |  |  | MBC [7]: 128 µg/mL (≈ 477 µM); MIC [7]: 32 µg/mL (≈ 119 µM); CC50 [3]: 456 µg/mL (≈ 1700 µM) |
| CCCCCCOC(=O)c1ccc([N+](=O)[O-])cc1 [Compound 2b] |  |  |  |  | 77 | 94 | 11.5 ± 0.6 |  |  |  |  |  |  |  |  | MBC ([7]; M. tuberculosis H37Rv, Table 3): 128 µg/mL (≈ 509 µM); MIC [7, 10]: 64 µg/mL (≈ 255 µM) |
| CCCCCCCCCCCCOC(=O)c1ccc([N+](=O)[O-])cc1 [Compound 2e] |  |  |  |  | 19 | 34 | 79.4 ± 4.7 |  |  |  |  |  |  |  |  | MBC ([7]; M. tuberculosis H37Rv, Table 3): 64 µg/mL (≈ 191 µM); MIC [7, 10]: 8 µg/mL (≈ 23.8 µM); Degradation (%) 24h [9]: 0%; Degradation (%) 48h [9]: 0%; Degradation (%) 72h [9]: 0%; Degradation (%) 168h [9]: 1%; Degradation (%) 332h [9]: 1% |
| CCCCOC(=O)c1ccccc1 [Compound 1a, Butyl benzoate] | 100 | 100 | 100 |  | 100 | 100 |  | 0 | 0 | 0 | 1 | 2 | > 256 | > 256 | 0.2 ± 0.01 |  |
| CCCCCCCCCCCCOC(=O)c1ccccc1 [Compound 1e, Dodecyl benzoate] | 3 | 6 | 9 |  | 16 | 30 |  | 0 | 0 | 0 | 0 | 0 | 512 (≈ 1760 µM) | 256 (≈ 881 µM) | 91.4 ± 3.1 |  |
| CCCCCCCCOC(=O)c1ccccc1 [Compound 1c, Octyl benzoate] | 45 | 71 | 84 | 6 | 100 | 100 | 1.96 ± 0.02 | 0 | 0 | 0 | 0 | 0 | > 256 | 256 (≈ 1090 µM) |  | CC50 [3]: 1650 µg/mL (≈ 7020 µM) |
| CCCCCCCCOC(=O)c1ccc([N+](=O)[O-])cc1 [Compound 2c, Octyl 4-nitrobenzoate] | 100 | 100 | 100 | 82 | 35 | 58 |  | 0 | 1 | 1 | 3 | 6 | 128 (≈ 458 µM) | 8 (≈ 28.6 µM) | 39 ± 7.7 | CC50 ([3]; THP-1 monocytic cells): 657 µg/mL (≈ 2350 µM) |
| CCCCCCOC(=O)c1ccccc1 [Compound 1b, Hexyl benzoate] | 94 | 100 | 100 |  | 100 | 100 |  |  |  |  |  |  |  |  | 0.21 ± 0.01 |  |
| CCCCNC(=O)c1cc([N+](=O)[O-])cc(C(F)(F)F)c1 [Compound 8a, N-butyl-3-nitro-5-(trifluoromethyl)-benzamide] | 0 | 0 | 0 | 21 | 23 | 41 |  | 0 | 0 | 0 | 0 | 0 | 2 (≈ 6.89 µM) | 2 (≈ 6.89 µM) | 63.8 ± 4.1 | CC50 ([3]; THP-1 monocytic cells): 41 µg/mL (≈ 141 µM) |
| CCCCCCNC(=O)c1ccc([N+](=O)[O-])cc1 [Compound 6b, N-hexyl-4-nitrobenzamide] |  |  |  |  | 17 | 32 |  |  |  |  |  |  | 64 (≈ 256 µM) | 32 (≈ 128 µM) | 87.2 ± 5.8 |  |
| CCCCCCOC(=O)c1cc([N+](=O)[O-])cc(C(F)(F)F)c1 [Compound 4b, Hexyl 3-nitro-5-(trifluoromethyl)benzoate] | 72 | 94 | 98 | 0.62 | 15 | 27 |  |  |  |  |  |  | 1020 (≈ 3210 µM) | 1020 (≈ 3210 µM) | 105 ± 10 | CC50 ([3]; THP-1 monocytic cells): 639 µg/mL (≈ 2000 µM) |
| CCCCOC(=O)c1cc([N+](=O)[O-])cc(C(F)(F)F)c1 [Compound 4a, Butyl 3-nitro-5-(trifluoromethyl)benzoate] | 95 | 100 | 100 | 0.54 | 95 | 100 |  | 5 | 12 | 16 | 35 | 60 | 1020 (≈ 3520 µM) | 1020 (≈ 3520 µM) | 5.36 ± 0.44 | CC50 ([3]; THP-1 monocytic cells): 552 µg/mL (≈ 1900 µM) |
| CCCCNC(=O)c1ccc([N+](=O)[O-])cc1 [Compound 6a, N-butyl-4-nitrobenzamide] | 12 | 23 | 32 |  | 20 | 35 |  | 0 | 0 | 0 | 0 | 0 | 256 (≈ 1150 µM) | 128 (≈ 576 µM) | 76.5 ± 5.3 |  |
| CCCCOC(=O)c1ccc([N+](=O)[O-])cc1 [Compound 2a] |  |  |  |  | 99 | 100 | 3.46 ± 0.49 |  |  |  |  |  |  |  |  | MBC ([7]; M. tuberculosis H37Rv, Table 3): 128 µg/mL (≈ 573 µM); MIC [7, 10]: 64 µg/mL (≈ 287 µM); Degradation (%) 24h [9]: 0%; Degradation (%) 48h [9]: 1%; Degradation (%) 72h [9]: 1%; Degradation (%) 168h [9]: 2%; Degradation (%) 332h [9]: 4% |
